Test results taken from ChEMBL document CHEMBL6182888, “Design, synthesis, and biological activity study of 6,7-dimethoxy-1,2,3,4-tetrahydroisoquinoline derivatives against multidrug resistance in Eca109/VCR cells” (Eur J Med Chem, 2025).
Each block holds one compound with its values, some of them ahead of it. Activity calls are given as the source filed them. No cut-off for these calls is given here.

Legend:
Eca-109/VCR [1] = test: Reversal of multi-drug resistance in human Eca-109/VCR cells assessed as decrease in cloning formation at 0.5 to 2 uM incubated for 8 days by crystal violet staining based analysis; assay type: functional, cell-based; conditions: dose 0.5-2 µM, time 8.0 day
Eca-109/VCR [2] = test: Cytotoxicity against human Eca-109/VCR cells assessed as reduction in cell viability incubated for 48 hrs by CCK-8 assay; assay type: functional, cell-based
Eca-109/VCR [3] = test: Cytotoxicity against human Eca-109/VCR cells assessed as reduction in cell viability at 5.0 uM incubated for 48 hrs by CCK-8 assay relative to control; assay type: functional
[4] = Reversal fold, ratio of vincristine IC50 to vincristine IC50 in presence of test compound for reversal of drug resistance in human Eca-109/VCR cells at 5 uM incubated for 48 hrs by CCK-8 assay; assay type: functional
Eca-109/VCR [5] = test: Induction of apoptosis in human Eca-109/VCR cells assessed as viable cells at 2.5 uM incubated for 60 hrs by Annexin V-FITC/PI staining based flow cytometric analysis (reference value: 97.4%); assay type: functional; conditions: read-out: Activity
Eca-109/VCR [6] = test: Induction of apoptosis in human Eca-109/VCR cells assessed as early apoptotic cells at 2.5 uM incubated for 60 hrs by Annexin V-FITC/PI staining based flow cytometric analysis (reference value: 1.66%); assay type: functional
Eca-109/VCR [7] = test: Reversal of multi-drug resistance in human Eca-109/VCR cells assessed as decrease in cloning formation at 0.5 to 2 uM incubated for 8 days in presence of vincristine by crystal violet staining based analysis; assay type: functional, cell-based; conditions: dose 0.5-2 µM, time 8.0 day
Eca-109/VCR [8] = test: Reversal of multi-drug resistance in human Eca-109/VCR cells assessed as decrease in cloning formation incubated for 8 days in presence of vincristine by crystal violet staining based analysis; assay type: functional, cell-based; conditions: dose 0.5-2 µM, time 8.0 day
Eca-109/VCR [9] = test: Effect on p-gp expression in human Eca-109/VCR cells at 5 to 10 uM incubated for 24 hrs by Western blotting analysis; assay type: functional, cell-based; conditions: dose 5-10 µM
Eca-109/VCR [10] = test: Induction of apoptosis in human Eca-109/VCR cells assessed as late apoptotic cells at 2.5 uM incubated for 60 hrs by Annexin V-FITC/PI staining based flow cytometric analysis (reference value: 0.70%); assay type: functional
Eca-109/VCR [11] = test: Induction of apoptosis in human Eca-109/VCR cells assessed as necrotic cells at 2.5 uM incubated for 60 hrs by Annexin V-FITC/PI staining based flow cytometric analysis (reference value: 0.22%); assay type: functional
Eca-109/VCR [12] = test: Induction of apoptosis in human Eca-109/VCR cells assessed as viable cells at 5 uM incubated for 60 hrs by Annexin V-FITC/PI staining based flow cytometric analysis (reference value: 97.4%); assay type: functional; conditions: read-out: Activity
Eca-109/VCR [13] = test: Induction of apoptosis in human Eca-109/VCR cells assessed as early apoptotic cells at 5 uM incubated for 60 hrs by Annexin V-FITC/PI staining based flow cytometric analysis (reference value: 1.66%); assay type: functional
Eca-109/VCR [14] = test: Induction of apoptosis in human Eca-109/VCR cells assessed as late apoptotic cells at 5 uM incubated for 60 hrs by Annexin V-FITC/PI staining based flow cytometric analysis (reference value: 0.70%); assay type: functional
[15] = Apparent clearance in male Sprague-Dawley rat at 10 mg/kg, po measured after 24 hrs by UPLC-MS/MS analysis; assay type: ADME, organism-based; conditions: in vivo, read-out: CL(app) (converted)
[16] = Reversal fold, ratio of mitoxantrone IC50 to mitoxantrone IC50 in presence of test compound for reversal of drug resistance in human Eca-109/VCR cells at 5 uM incubated for 48 hrs by CCK-8 assay; assay type: functional
[17] = Reversal fold, ratio of docetaxel IC50 to docetaxel IC50 in presence of test compound for reversal of drug resistance in human Eca-109/VCR cells at 5 uM incubated for 48 hrs by CCK-8 assay; assay type: functional
[18] = Reversal fold, ratio of doxorubicin IC50 to doxorubicin IC50 in presence of test compound for reversal of drug resistance in human Eca-109/VCR cells at 5 uM incubated for 48 hrs by CCK-8 assay; assay type: functional
[19] = Reversal fold, ratio of lapatinib IC50 to lapatinib IC50 in presence of test compound for reversal of drug resistance in human Eca-109/VCR cells at 5 uM incubated for 48 hrs by CCK-8 assay; assay type: functional
[20] = Reversal fold, ratio of colchicine IC50 to colchicine IC50 in presence of test compound for reversal of drug resistance in human Eca-109/VCR cells at 5 uM incubated for 48 hrs by CCK-8 assay; assay type: functional
Eca-109/VCR [21] = test: Induction of apoptosis in human Eca-109/VCR cells assessed as viable cells at 2.5 uM incubated for 60 hrs in presence of vincristine by Annexin V-FITC/PI staining based flow cytometric analysis (reference value: 97.3%); assay type: functional; conditions: read-out: Activity
Eca-109/VCR [22] = test: Induction of apoptosis in human Eca-109/VCR cells assessed as viable cells at 5 uM incubated for 60 hrs in presence of vincristine by Annexin V-FITC/PI staining based flow cytometric analysis (reference value: 97.3%); assay type: functional; conditions: read-out: Activity
Eca-109/VCR [23] = test: Induction of apoptosis in human Eca-109/VCR cells assessed as late apoptotic cells at 2.5 uM incubated for 60 hrs in presence of vincristine by Annexin V-FITC/PI staining based flow cytometric analysis (reference value: 0.56%); assay type: functional
Eca-109/VCR [24] = test: Induction of apoptosis in human Eca-109/VCR cells assessed as late apoptotic cells at 5 uM incubated for 60 hrs in presence of vincristine by Annexin V-FITC/PI staining based flow cytometric analysis (reference value: 0.56%); assay type: functional
Eca-109/VCR [25] = test: Induction of apoptosis in human Eca-109/VCR cells assessed as necrotic cells at 2.5 uM incubated for 60 hrs in presence of vincristine by Annexin V-FITC/PI staining based flow cytometric analysis (reference value: 0.10%); assay type: functional
Eca-109/VCR [26] = test: Induction of apoptosis in human Eca-109/VCR cells assessed as necrotic cells at 5 uM incubated for 60 hrs in presence of vincristine by Annexin V-FITC/PI staining based flow cytometric analysis (reference value: 0.10%); assay type: functional

SMILES: CC[C@]1(O)C[C@H]2CN(CCc3c([nH]c4ccccc34)[C@@](C(=O)OC)(c3cc4c(cc3OC)N(C=O)[C@H]3[C@@](O)(C(=O)OC)[C@H](OC(C)=O)[C@]5(CC)C=CCN6CC[C@]43[C@@H]65)C2)C1 [VINCRISTINE]
Activity (Eca-109/VCR [1]): inactive
IC50 (Eca-109/VCR [2]): 4.15 µM

CL/F [15]: 393 L/h/kg
SMILES: COc1cc2c(cc1OC)C(Cc1ccc(OS(=O)(=O)c3ccccc3[N+](=O)[O-])c(OC)c1)N(C)CC2 (configuration not stated)
Cell viability (% of control) (Eca-109/VCR [3]): 99.1%
Ratio IC50 [4]: 467.7
viability at 2.5 µM (Eca-109/VCR [5]): 96.9%
Activity (Eca-109/VCR [6]): 2.19%
Activity (Eca-109/VCR [1]): inactive
Activity (Eca-109/VCR [7]): Active; Compound Showed Superior Reversal Activity Compared To Oy-101
Activity (Eca-109/VCR [8]): Dose-dependent-effect
Activity (Eca-109/VCR [9]): Active
Activity (Eca-109/VCR [10]): 0.53%
Activity (Eca-109/VCR [11]): 0.29%
viability at 5 µM (Eca-109/VCR [12]): 97.1%
Activity (Eca-109/VCR [13]): 1.61%
Activity (Eca-109/VCR [14]): 1%
Ratio IC50 [16]: 10
Ratio IC50 [17]: 149.7
Ratio IC50 [18]: 29.4
Ratio IC50 [19]: 1
Ratio IC50 [20]: 98.2
viability at 2.5 µM (Eca-109/VCR [21]): 75.4%
viability at 5 µM (Eca-109/VCR [22]): 94.5%
Activity (Eca-109/VCR [23]): 5.47%
Activity (Eca-109/VCR [24]): 9.21%
Activity (Eca-109/VCR [25]): 0.63%
Activity (Eca-109/VCR [26]): 0.7%
